Experiment [1] addresses Human immunodeficiency virus type 1 reverse transcriptase (Human immunodeficiency virus 1) (UniProt Q72547). Put plainly: Binding affinity to free form of wild type HIV-1 p66/p51 reverse transcriptase assessed as dissociation constant using poly(rA)/oligo(dT) as templates in presence of [3H]dTTP.
Experiment [2] is described as follows: Binding affinity to free form of HIV-1 p66/p51 reverse transcriptase K103N/Y181C double mutant using poly(rA)/oligo(dT) as templates in presence of [3H]dTTP. Details: species or system Human immunodeficiency virus 1.
The target of experiment [3] is Human immunodeficiency virus type 1 reverse transcriptase (Human immunodeficiency virus 1) (UniProt Q72547). The experiment can be described thus: Ratio of Koff of wild type HIV-1 p66/p51 reverse transcriptase/nucleic acid binary complex to Koff of wild type HIV-1 p66/p51 reverse transcriptase/nucleic acid/dTTP ternary complex using poly(rA)/oligo(dT) as templates in presence of [3H]dTTP.

Experiment [4] concerns Human immunodeficiency virus 1. The experiment can be described thus: Binding affinity to free form of HIV-1 p66/p51 reverse transcriptase K103N/Y181C double mutant assessed as association constant using poly(rA)/oligo(dT) as templates in presence of [3H]dTTP.
The target in experiment [5] is Human immunodeficiency virus type 1 reverse transcriptase (Human immunodeficiency virus 1) (UniProt Q72547). Put plainly: Inhibition of wild type HIV1 p66/p51 reverse transcriptase assessed as apparent Vmax at 75 nM using 10 to 500 uM poly(rA)/oligo(dT) as templates in presence of fixed concentration of [3H]dTTP by Michaelis-Menten analysis (reference value: 10 +/- 0.5%).

Experiment [6] relates to Human immunodeficiency virus 1. The experiment can be described thus: Antiviral activity against HIV1 harboring RT K103N/Y181C double mutant infected in human MT4 cells assessed as protection against virus-induced cytopathic effect by MTT assay. Particulars: Human immunodeficiency virus 1, MT4. It is filed as functional, organism-based. For orientation: Damage to the host cells serves as the signal in cytopathic effect assays.

The target in experiment [7] is Human immunodeficiency virus type 1 reverse transcriptase (Human immunodeficiency virus 1) (UniProt Q72547). Put plainly: Inhibition of wild type HIV1 p66/p51 reverse transcriptase assessed as apparent Vmax at 37.5 nM using 10 to 500 uM poly(rA)/oligo(dT) as templates in presence of fixed concentration of [3H]dTTP by Michaelis-Menten analysis (reference value: 10 +/- 0.5%).

The target of experiment [8] is T1, Human immunodeficiency virus type 1 reverse transcriptase (Human immunodeficiency virus 1, UniProt Q72547). The experiment can be described thus: Binding affinity to wild type HIV-1 p66/p51 reverse transcriptase/nucleic acid/dTTP ternary complex using poly(rA)/oligo(dT) as templates in presence of [3H]dTTP.
Experiment [9] deals with Human immunodeficiency virus 1. The experiment can be described thus: Antiviral activity against HIV1 harboring RT Y181C mutant infected in human MT4 cells assessed as protection against virus-induced cytopathic effect by MTT assay. Type of experiment: functional, organism-based. To be noted: Human immunodeficiency virus 1, MT4.
Experiment [10] deals with Human immunodeficiency virus 1. The experiment can be described thus: Inhibition of HIV1 p66/p51 reverse transcriptase K103N/Y181C double mutant assessed as apparent Km of substrate at 150 nM using […] as templates in presence of fixed concentration of [3H]dTTP by Michaelis-Menten analysis (reference value: 106+/- 16 nM).
Experiment [11] concerns the target T1, Human immunodeficiency virus type 1 reverse transcriptase. The experiment can be described thus: Binding affinity to free form of wild type HIV-1 p66/p51 reverse transcriptase using poly(rA)/oligo(dT) as templates in presence of [3H]dTTP.
In experiment [12] the test system is Human immunodeficiency virus 1. The experiment can be described thus: Inhibition of HIV1 p66/p51 reverse transcriptase K103N/Y181C double mutant assessed as apparent Km of substrate at 300 nM using fixed concentration of poly(rA)/oligo(dT) as templates in presence of 2 to 100 uM of [3H]dTTP by Michaelis-Menten analysis (reference value: 9.2 +/- 1.4 uM).
In experiment [13] the target is Human immunodeficiency virus type 1 reverse transcriptase (Human immunodeficiency virus 1) (UniProt Q72547). The experiment can be described thus: Binding affinity to wild type HIV-1 p66/p51 reverse transcriptase/nucleic acid binary complex assessed as association constant using poly(rA)/oligo(dT) as templates in presence of [3H]dTTP.

A word on the Ki: it is a measure of affinity in units of concentration, obtained from inhibition or displacement. Broadly, the EC50 is the concentration at which the effect is half-maximal. By Km is commonly meant the concentration of substrate that gives half-maximal velocity.

Regarding `Cc1cc(C)cc(S(=O)(=O)c2c(C(=O)NCc3ccccc3O)[nH]c3ccc(Cl)cc23)c1`, the figures for the K in [1], in experiment [4] and in experiment [13] were 4 10^-3/s, 10 10^-5/nM/s and 96 10^-5/nM/s, respectively. Moreover, the figures for the inhibitory constant (Ki) in experiment [2], in [8] and in experiment [11] were 0.137 µM, 0.028 µM and 0.031 µM, respectively. The Ratio in experiment [3] amounted to 8. In addition, the Vmax(app) in [5] is 3.3%; in [7], 4.9%. Further, the EC50 is 0.0062 µM in experiment [6] and less than 0.0007 µM in experiment [9]. Also, the Km in experiment [10] stood at 0.125 µM; in experiment [12] it was 1.9 µM.
